Values quoted from earlier work in patent publication US10335411B2, “Administration of ubiquitin-activating enzyme inhibitor and radiation” (Millennium Pharmaceuticals, Inc., priority 2014, dated 2019).

Key:
[1] = tested on: mouse acute myeloid leukemia (AML model); details: Xu et al., 2010; cited from earlier work
[2] = tested on: leukemia and myeloma cell lines; details: Xu et al., 2010; cited from earlier work

O=C1NN(c2ccc(F)c(Cl)c2)C(=O)/C1=C\c1ccc([N+](=O)[O-])o1 [PYZD-4409]
anti-tumor activity [1]: induced anti-tumor activity
cell death [2]: induced cell death
